This passage reports IC50 results from ChEMBL document CHEMBL1145791, “Synthesis and biological activity of various derivatives of a novel class of potent, selective, and orally active prostaglandin D2 receptor antagonists. 1. Bicyclo[2.2.1]heptane derivatives” (J Med Chem, 2003).

pIC50: −log10 of the molar value.

The target in assay [1] is T1, Prostaglandin D2 receptor (Homo sapiens, UniProt Q13258).
T1 sequence (Q13258 whole entry): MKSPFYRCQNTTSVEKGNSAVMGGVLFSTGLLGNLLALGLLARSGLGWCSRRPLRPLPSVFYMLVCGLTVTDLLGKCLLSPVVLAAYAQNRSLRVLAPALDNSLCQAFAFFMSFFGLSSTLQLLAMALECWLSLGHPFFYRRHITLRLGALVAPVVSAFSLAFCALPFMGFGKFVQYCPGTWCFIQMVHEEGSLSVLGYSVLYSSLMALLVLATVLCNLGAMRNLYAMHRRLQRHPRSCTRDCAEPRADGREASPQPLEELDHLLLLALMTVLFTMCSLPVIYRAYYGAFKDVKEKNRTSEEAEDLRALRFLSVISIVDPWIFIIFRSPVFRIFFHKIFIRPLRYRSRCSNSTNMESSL
As to the kind of experiment: In vitro inhibition of [3H]- PGD-2 radioligand binding to prostaglandin D2 receptor on human platelet membrane.

Assay [2] has as its target T1, Prostaglandin D2 receptor. The assay can be described thus: In vitro inhibition of cAMP formation evoked by prostaglandin D2 receptor in human platelets. Format: functional. (cAMP levels reflect the balance of adenylyl cyclase and phosphodiesterase activity.)

For orientation: pIC50 means the IC50 on a negative log10 scale, so that one unit is a factor of ten. Lower therefore signals a high IC50. For the compound `O=C(O)CCC/C=C\C[C@@H]1[C@H]2CC[C@H](C2)[C@H]1NS(=O)(=O)c1ccc(/C=C\c2ccccc2)cc1`, the pIC50 in assay [1] was 6.70; in assay [2] it was 6.74.

On to `CS(=O)(=O)NC(=O)CCC/C=C\C[C@@H]1[C@H]2CC[C@H](C2)[C@H]1NS(=O)(=O)c1ccc2oc3ccccc3c2c1`, for which the pIC50 in assay [1] is 7.38; in assay [2] it was 7.49.

On to `O=C(O)CCC/C=C\C[C@@H]1[C@H]2CC[C@H](C2)[C@H]1NS(=O)(=O)c1ccc2c(c1)Cc1ccccc1-2`, for which the pIC50 in assay [2] is less than 6.00.

On to `O=C(O)CCC/C=C\C[C@@H]1[C@H]2CC[C@H](C2)[C@H]1NS(=O)(=O)c1ccc(C(=O)Nc2ccccc2)cc1`, for which the negative-log IC50 (pIC50) in assay [1] is 5.96; in assay [2], 7.07.

As to `COc1cc2c(cc1S(=O)(=O)N[C@@H]1[C@@H]3CC[C@@H](C3)[C@H]1C/C=C\CCC(C)(C)C(=O)O)oc1ccccc12`, the values for the pIC50 in assay [1] and in assay [2] were 7.24 and 6.49, respectively.

Consider `O=C(O)CCC/C=C\C[C@@H]1[C@H]2CC[C@H](C2)[C@H]1NS(=O)(=O)c1ccc(-c2cc3ccccc3[nH]2)cc1`, for which the negative logarithm of the IC50 (pIC50) is 6.72 in assay [1] and 6.68 in assay [2].

Turning to `O=C(O)CCC/C=C\C[C@@H]1[C@H]2CC[C@H](C2)[C@H]1NS(=O)(=O)c1ccc(-c2ccccc2)s1`, the pIC50 in assay [1] was 6.24; in assay [2] it was 6.66.

`O=C(O)CCC/C=C\C[C@@H]1[C@H]2CC[C@H](C2)[C@H]1NS(=O)(=O)c1ccc2oc3ccc(O)cc3c2c1`: the negative logarithm of the IC50 (pIC50) in assay [1] was 6.70; in assay [2], 6.60.

As for `O=C(O)CCC/C=C\C[C@@H]1[C@H]2CC[C@H](C2)[C@H]1NS(=O)(=O)c1ccc(CCc2ccccc2)cc1`, the pIC50 in assay [1] was 6.26; in assay [2] it was 6.59.

As to `O=C(O)CCC/C=C\C[C@@H]1[C@H]2CC[C@H](C2)[C@H]1NS(=O)(=O)c1ccc(-c2cccs2)s1`, the pIC50 in assay [1] was 6.39; in assay [2] it was 6.70.

As to `CC(C)(CC/C=C\C[C@@H]1[C@H]2CC[C@H](C2)[C@H]1NS(=O)(=O)c1ccc2oc3ccccc3c2c1)C(=O)O`, the pIC50 in assay [1] is 6.74; in assay [2] it was 6.49.

`O=C(O)CCC/C=C\C[C@@H]1[C@H]2CC[C@H](C2)[C@H]1NS(=O)(=O)c1ccc(-c2ccc(C(F)(F)F)cc2)cc1`: the figures for the pIC50 in assay [1] and in assay [2] were 6.18 and 6.46, respectively.

With `O=C(O)CCCCC(=O)C[C@@H]1[C@H]2CC[C@H](C2)[C@H]1NS(=O)(=O)c1ccc2oc3ccccc3c2c1`, the results for the pIC50 in assay [1] and in assay [2] were 6.17 and 7.72, respectively.

The compound `O=C(O)CCC/C=C\C[C@@H]1[C@H]2CC[C@H](C2)[C@H]1NS(=O)(=O)c1ccc2cc(-c3ccccc3)[nH]c2c1` gave a pIC50 in assay [2] of 7.15.

Regarding `COc1cc2c(cc1S(=O)(=O)N[C@@H]1[C@@H]3CC[C@@H](C3)[C@H]1CC(=O)CCCCC(=O)O)oc1ccccc12`, the pIC50 in assay [1] was 6.02; in assay [2], 7.48.

For `O=C(O)CCC/C=C\C[C@@H]1[C@H]2CC[C@H](C2)[C@H]1NS(=O)(=O)c1ccc(Cc2ccccc2)cc1`, the negative logarithm of the IC50 (pIC50) in assay [1] was 5.28; in assay [2] it was 6.19.

Take `O=C(O)CCC/C=C\C[C@@H]1[C@H]2CC[C@H](C2)[C@H]1NS(=O)(=O)c1ccc(-c2nnnn2-c2ccccc2)cc1`: the pIC50 is 7.21 in assay [1] and 6.42 in assay [2].

On to `O=C(O)CCC/C=C\C[C@@H]1[C@H]2CC[C@H](C2)[C@H]1NS(=O)(=O)c1ccc2oc3cc([N+](=O)[O-])ccc3c2c1`, for which the pIC50 in assay [1] is 6.26; in assay [2] it was 7.24.

Turning to `COc1ccc(-c2ccc(S(=O)(=O)N[C@@H]3[C@@H]4CC[C@@H](C4)[C@H]3C/C=C\CCCC(=O)O)cc2)cc1`, the figures for the negative-log IC50 (pIC50) in assay [1] and in assay [2] were 6.35 and 6.70, respectively.

`COc1ccc2oc3ccc(S(=O)(=O)N[C@@H]4[C@@H]5CC[C@@H](C5)[C@H]4C/C=C\CCCC(=O)O)cc3c2c1`: the pIC50 in assay [1] was 7.47; in assay [2] it was 6.48.

Take `O=C(O)CCC/C=C\C[C@@H]1[C@H]2CC[C@H](C2)[C@H]1NS(=O)(=O)c1ccc(/N=N/c2ccccc2)cc1`: the pIC50 in assay [1] is 7.60.

With `O=C(O)CCCCCC[C@@H]1[C@H]2CC[C@H](C2)[C@H]1NS(=O)(=O)c1ccc2oc3ccccc3c2c1`, the pIC50 is 6.92 in assay [1] and 6.37 in assay [2].

Turning to `O=C(O)CCC/C=C\C[C@@H]1[C@H]2CC[C@H](C2)[C@H]1NS(=O)(=O)c1cc2oc3ccccc3c2cc1O`, the figures for the pIC50 in assay [1] and in assay [2] were 6.72 and 6.74, respectively.

On to `O=C(O)CCC/C=C\C[C@@H]1[C@H]2CC[C@H](C2)[C@H]1NS(=O)(=O)c1ccc(Oc2ccccc2)cc1`, for which the pIC50 in assay [1] is 6.17; in assay [2], 6.24.

As for `Cn1c(-c2ccccc2)cc2ccc(S(=O)(=O)N[C@@H]3[C@@H]4CC[C@@H](C4)[C@H]3C/C=C\CCCC(=O)O)cc21`, the results for the pIC50 in assay [1] and in assay [2] were 6.42 and 6.72, respectively.

Consider `COc1ccc(S(=O)(=O)N[C@@H]2[C@@H]3CC[C@@H](C3)[C@H]2C/C=C\CCCC(=O)O)cc1`, for which the pIC50 in assay [1] is less than 5.00; in assay [2], 6.41.

In the case of `O=C(O)CCC/C=C\C[C@@H]1[C@H]2CC[C@H](C2)[C@H]1NS(=O)(=O)c1ccc2c(c1)oc1ccccc12`, the negative-log IC50 (pIC50) is 7.66 in assay [1] and 6.80 in assay [2].

`O=C(O)CCC/C=C\C[C@@H]1[C@H]2CC[C@H](C2)[C@H]1NS(=O)(=O)c1ccc(/C=C/c2ccccc2)s1`: the pIC50 was 7.05 in assay [1] and 7.00 in assay [2].

`Cc1cc(C)c(S(=O)(=O)N[C@@H]2[C@@H]3CC[C@@H](C3)[C@H]2C/C=C\CCCC(=O)O)c(C)c1`: the pIC50 was 5.27 in assay [1] and 6.89 in assay [2].

Turning to `O=C(O)CCC/C=C\C[C@@H]1[C@H]2CC[C@H](C2)[C@H]1NS(=O)(=O)Cc1ccc(-c2ccccc2)cc1`, the pIC50 is 5.07 in assay [1] and less than 6.00 in assay [2].

`O=C(O)CCC/C=C\C[C@@H]1[C@H]2CC[C@H](C2)[C@H]1NS(=O)(=O)c1ccc(NC(=O)c2ccccc2)cc1`: the values for the pIC50 in assay [1] and in assay [2] were 5.22 and 6.92, respectively.

On to `COc1ccc(S(=O)(=O)N[C@@H]2[C@@H]3CC[C@@H](C3)[C@H]2C/C=C\CCCC(=O)O)cc1[N+](=O)[O-]`, for which the pIC50 is 5.27 in assay [1] and 6.55 in assay [2].

With `CN(C)c1ccc2c(c1)oc1ccc(S(=O)(=O)N[C@@H]3[C@@H]4CC[C@@H](C4)[C@H]3C/C=C\CCCC(=O)O)cc12`, the results for the pIC50 in assay [1] and in assay [2] were 7.44 and 6.77, respectively.

For `O=C(O)CCC/C=C\C[C@@H]1[C@H]2CC[C@H](C2)[C@H]1NS(=O)(=O)c1ccc(/C=C/c2ccccc2)cc1`, the pIC50 in assay [1] was 7.00; in assay [2], 6.74.

Consider `O=C(O)CCC/C=C\C[C@@H]1[C@H]2CC[C@H](C2)[C@H]1NS(=O)(=O)c1ccc(Nc2ccccc2)cc1`, for which the pIC50 was 6.48 in assay [1] and 6.80 in assay [2].

In assay [1], `O=C(O)CCC/C=C\C[C@@H]1[C@H]2CC[C@H](C2)[C@H]1NS(=O)(=O)c1ccccc1-c1ccccc1` gave a negative logarithm of the IC50 (pIC50) of 5.07.

As for `O=C(O)CCC/C=C\C[C@@H]1[C@H]2CC[C@H](C2)[C@H]1NS(=O)(=O)c1cccc(-c2ccccc2)c1`, the results for the pIC50 in assay [1] and in assay [2] were 6.17 and 6.55, respectively.
